Read-outs that look alike come from different tables or passages of the source.
Key:
HL60 (human leukaemia) = assay: Cytotoxicity in vitro, cellular viability (ATPlite Perkin Elmer test), HL60; assay type: cell-based; design: cellular viability (ATPlite Perkin Elmer test): unit not given here; conditions: for GI50: Homo sapiens
Description: (§1) The cytotoxic effects of the compounds of formula (A) were evaluated by treating […] with different concentrations of the compounds under screening. The following cell lines were used: A2780 (human ovarian carcinoma), HL60 (human leukaemia), C6 (rat glioma) and HT29 (adenocarcinoma of human colon). The cell lines have been obtained by ECACC (European Collection of Cell Cultures).
(§2) The cell lines have been cultured in 75 cm^2 flasks with culture medium DMEM (Dulbecco's Medium Eagle Modified, Sigma Aldrich®) and the following additives (Sigma Aldrich®): L-Glutamine 2 mM, 10% Fetal Bovine Serum, Penicillin/-Streptomycin, Fungizone, Gentamycin. The incubation was carried out in modified atmosphere incubators (37° C., 5% CO2). When cell confluence was obtained, the cells were propagated by dilution in a ratio 1:3/1:5 by using a Trypsin-EDTA 1× solution and then transferred into 96 well plates in the suitable culture medium. The cells were then treated for 72 hours with different concentrations (10^−13+10^−4 M) of the compounds under examination. For the tests in vitro the compounds obtained in the examples 1.15 and 6.8 were solubilised in dimethylsulphoxide (DMSO). All the tests were performed with a constant DMSO concentration equal to 0.1% by weight.
(§3) In order to control the cellular viability, the ATPlite test (Perkin Elmer) was used. The APTlite test evaluates the ATP production. APT is a marker of cellular viability as it is present in all the metabolically active cells. The test’ is based on the chemiluminiscence due to the ATP reaction with the luciferase and the D-luciferin. The emitted light is proportional to the ATP concentration. For the reading the Victor 3 instrument by Perkin Elmer was used.
(§4) Four readings were taken for each sample solution. The results (average values) for the cytotoxicity of the compounds of formula (A) obtained in examples 1.15 and 6.8 are reported respectively in Tables 1 and 2. It is noted that the GI50 values determined by means of the cellular viability values are lower than 2 nM. This confirms the high cytotoxicity of the compound of formula (A).

[1] = system: A2780 (human ovarian carcinoma); assay: Cytotoxicity in vitro, cellular viability (ATPlite Perkin Elmer test), A2780; assay type: cell-based; design: cellular viability (ATPlite Perkin Elmer test): unit not given here; conditions: for GI50: Homo sapiens
Description: as §1, §2, §3, §4

[2] = system: HT29 (adenocarcinoma of human colon); assay: Cytotoxicity in vitro, cellular viability (ATPlite Perkin Elmer test), HT29; assay type: cell-based; design: cellular viability (ATPlite Perkin Elmer test): unit not given here; conditions: for cellular viability (ATPlite Perkin Elmer test): 72 hours
Description: as §1, §2, §3, §4

[3] = system: A2780, HL60, C6 and HT29 cell lines; assay: Cytotoxicity in vitro, summary over the cell lines of example 14; assay type: cell-based, human; rat; conditions: all cell lines of Tables 1 and 2; read-out: GI50 values determined by means of the cellular viability values
Description: as §1
as §2, with “All the tests were performed with a constant DMSO concentration equal to 0.1% by weight.” left out
In order to control the cellular viability, the ATPlite test (Perkin Elmer) was used. […] For the reading the Victor 3 instrument by Perkin Elmer was used.
Four readings were taken for each sample solution. […]

C6 (rat glioma) = assay: Cytotoxicity in vitro, cellular viability (ATPlite Perkin Elmer test), C6; assay type: cell-based; design: cellular viability (ATPlite Perkin Elmer test): unit not given here; conditions: for GI50: Rattus norvegicus
Description: as §1, §2, §3, §4

[4] = as above; assay type: cell-based, rat; design: cellular viability (ATPlite Perkin Elmer test): unit not given here; conditions: rat, C6 rat glioma cells, C6, 72 hours
Description: as §1, §2, §3, §4

Q: For CC[C@H](C)[C@H](NC(=O)[C@H]1CCCCN1C)C(=O)N(CCOC)[C@H](C[C@@H](OC(C)=O)c1nc(C(=O)NC)cs1)C(C)C [Example 15.4, (1R,3R)-3-((2S,3S)—N-(2-methoxyethyl)-3-methyl-2-((R)-1-methylpiperidine-2-carboxamido)pentanamido)-4-methyl-1-(4-(methylcarbamoyl)thiazol-2-yl)pentyl acetate, reference compound], which cell viability (HL60 (human leukaemia); HL60, concentration of 10^−10 mole/liter) is on record?
A: Its cell viability is 96%.

Q: And the cell viability (HL60 (human leukaemia); HL60, concentration of 10^−11 mole/liter)?
A: The cell viability was 99.8%.

Q: What about the “times less toxic than the compounds of the present invention” value (HL60 (human leukaemia); HL60, ratio of GI50 values) of the same compound?
A: The value was 10^3 times.

Q: And the GI50 (HL60 (human leukaemia); HL-60, HL60, read-out: citotoxicity, expressed as GI50)?
A: The GI50 was 10 nM.

Q: What does the source list for CC[C@H](C)[C@H](NC(=O)[C@H]1CCCCN1C)C(=O)N(CCOC)[C@H](C[C@@H](OC(C)=O)c1nc(C(=O)N[C@@H](Cc2ccccc2)C[C@H](C)C(=O)O)cs1)C(C)C [Example 6.8, (2S,4R)-4-(2-((1R,3R)-1-acetoxy-3-((2S,3R)—N(2-methoxyethyl)-3-methyl-2-(1-methylpiperidine-2-carboxamido)pentanamido)-4-methylpentyl)thiazol-4-carboxamido)-2-methyl-5-phenylpentanoic acid]?
A: GI50 ([1]; 72 hours, value is GI50 multiplied by 10^9, Table 2, read-out: GI50 × 10^9): 1.54 nM; cellular viability (ATPlite Perkin Elmer test) ([1]; compound 10^−4 mole/litre, 72 hours): 3.08; cellular viability (ATPlite Perkin Elmer test) ([1]; compound 10^−5 mole/litre, 72 hours): 8.41; cellular viability (ATPlite Perkin Elmer test) ([1]; compound 10^−6 mole/litre, 72 hours): 9.11; cellular viability (ATPlite Perkin Elmer test) ([1]; compound 10^−7 mole/litre, 72 hours): 9.11; cellular viability (ATPlite Perkin Elmer test) ([1]; compound 10^−8 mole/litre, 72 hours): 22.80; cellular viability (ATPlite Perkin Elmer test) ([1]; compound 10^−9 mole/litre, 72 hours): 64.56; cellular viability (ATPlite Perkin Elmer test) ([1]; compound 10^−10 mole/litre, 72 hours): 106.7; cellular viability (ATPlite Perkin Elmer test) ([1]; compound 10^−11 mole/litre, 72 hours): 109.7; cellular viability (ATPlite Perkin Elmer test) ([1]; compound 10^−12 mole/litre, 72 hours): 104.1; cellular viability (ATPlite Perkin Elmer test) ([1]; compound 10^−13 mole/litre, 72 hours): 104.0; GI50 ([2]; Homo sapiens, HT-29, 72 hours, value is GI50 multiplied by 10^9, Table 2): 0.278 nM; cellular viability (ATPlite Perkin Elmer test) ([2]; compound 10^−4 mole/litre): 11.55; cellular viability (ATPlite Perkin Elmer test) ([2]; compound 10^−5 mole/litre): 11.46; cellular viability (ATPlite Perkin Elmer test) ([2]; compound 10^−6 mole/litre): 18.08; cellular viability (ATPlite Perkin Elmer test) ([2]; compound 10^−7 mole/litre): 17.68; cellular viability (ATPlite Perkin Elmer test) ([2]; compound 10^−8 mole/litre): 20.38; cellular viability (ATPlite Perkin Elmer test) ([2]; compound 10^−9 mole/litre): 24.49; cellular viability (ATPlite Perkin Elmer test) ([2]; compound 10^−10 mole/litre): 95.7; cellular viability (ATPlite Perkin Elmer test) ([2]; compound 10^−11 mole/litre): 115.6; cellular viability (ATPlite Perkin Elmer test) ([2]; compound 10^−12 mole/litre): 107.5; cellular viability (ATPlite Perkin Elmer test) ([2]; compound 10^−13 mole/litre): 108.0; GI50 [3]: < 2 nM; cellular viability (ATPlite Perkin Elmer test) (C6 (rat glioma); C6, compound 10^−4 mole/litre, 72 hours): 19.10; cellular viability (ATPlite Perkin Elmer test) (C6 (rat glioma); C6, compound 10^−7 mole/litre, 72 hours): 20.70; cellular viability (ATPlite Perkin Elmer test) (C6 (rat glioma); C6, compound 10^−8 mole/litre, 72 hours): 25.60; cellular viability (ATPlite Perkin Elmer test) (C6 (rat glioma); C6, compound 10^−9 mole/litre, 72 hours): 39.57; cellular viability (ATPlite Perkin Elmer test) (C6 (rat glioma); C6, compound 10^−10 mole/litre, 72 hours): 64.15; cellular viability (ATPlite Perkin Elmer test) (C6 (rat glioma); C6, compound 10^−11 mole/litre, 72 hours): 96.68; cellular viability (ATPlite Perkin Elmer test) (C6 (rat glioma); C6, compound 10^−12 mole/litre, 72 hours): 99.13; cellular viability (ATPlite Perkin Elmer test) (C6 (rat glioma); C6, compound 10^−13 mole/litre, 72 hours): 101.2; GI50 (C6 (rat glioma); C6, 72 hours, value is GI50 multiplied by 10^9, Table 2, read-out: GI50 × 10^9): 0.147 nM; viability at 72 h ([4]; compound 10^−5 mole/litre): 20.2%; viability at 72 h ([4]; compound 10^−6 mole/litre): 19.6%; cellular viability (ATPlite Perkin Elmer test) (HL60 (human leukaemia); HL60, compound 10^−4 mole/litre, 72 hours): 0.75; cellular viability (ATPlite Perkin Elmer test) (HL60 (human leukaemia); HL60, compound 10^−5 mole/litre, 72 hours): 1.22; cellular viability (ATPlite Perkin Elmer test) (HL60 (human leukaemia); HL60, compound 10^−6 mole/litre, 72 hours): 1.25; cellular viability (ATPlite Perkin Elmer test) (HL60 (human leukaemia); HL60, compound 10^−7 mole/litre, 72 hours): 1.14; cellular viability (ATPlite Perkin Elmer test) (HL60 (human leukaemia); HL60, compound 10^−8 mole/litre, 72 hours): 1.04; cellular viability (ATPlite Perkin Elmer test) (HL60 (human leukaemia); HL60, compound 10^−9 mole/litre, 72 hours): 1.36; cellular viability (ATPlite Perkin Elmer test) (HL60 (human leukaemia); HL60, compound 10^−10 mole/litre, 72 hours): 3.53; cellular viability (ATPlite Perkin Elmer test) (HL60 (human leukaemia); HL60, compound 10^−11 mole/litre, 72 hours): 56.38; cellular viability (ATPlite Perkin Elmer test) (HL60 (human leukaemia); HL60, compound 10^−12 mole/litre, 72 hours): 102.0; cellular viability (ATPlite Perkin Elmer test) (HL60 (human leukaemia); HL60, compound 10^−13 mole/litre, 72 hours): 100.9; GI50 (HL60 (human leukaemia); HL-60, HL60, 72 hours, value is GI50 multiplied by 10^9, Table 2, read-out: GI50 × 10^9): 0.0108 nM

Q: Which results are given for CC[C@H](C)[C@H](NC(=O)C1CCCCN1C)C(=O)N[C@H](C[C@@H](OC(C)=O)c1nc(C(=O)N[C@@H](Cc2ccccc2)C[C@H](C)C(=O)O)cs1)c1ccc(OC)cc1 (stereo partly drawn) [Example 16.9, (2S,4R)-4-(2-((1R,3R)-1-acetoxy-3-(4-methoxy-phenyl)-3-((2S,3S)-3-methyl-2-((R)-1-methylpiperidin-2-carbox-amido)pentanamido)propyl)thiazol-4-carboxamido)-2-methyl-5-phenylpentanoic acid, reference compound]?
A: GI50 ([1]; cellular line A 2780, read-out: GI50): > 100000 nM; GI50 (C6 (rat glioma); cellular line C6, read-out: GI50): > 10000 nM; GI50 (HL60 (human leukaemia); cellular line HL 60, read-out: GI50): > 10000 nM
